Like-named read-outs stand apart in the source and are kept apart here.
Columns and labels:
Format in all cases: cell-based
[1] = test system: L1210S; test: cells; settings: read-out: T.C.D.50
[2] = test system: L1210DDP; test: cells
[3] = test system: L1210 MTX; test: MTX and cisplatin cross-resistance test, 24 hour exposure

Row | Structure (SMILES) | IC50 ([1]; parental L1210S) [µM] | resistance of L1210DDP compared to L1210S [2] [fold] | IC50 ([2]; read-out: T.C.D.50) [µM] | IC50 [1] [µM] | resistance of L1210 MTX compared to L1210S [3] [times] | IC50 ([3]; Mus musculus, L1210 MTX, characterisation of resistant line, read-out: T.C.D.50) [µM]
1 | N.N.[Cl][Pt][Cl] [cisplatin, cis-diamminedichloroplatinum (II), reference compound] | 1.5 | 20 | 30 | – | – | –
2 | CN(Cc1cnc2nc(N)nc(N)c2n1)c1ccc(C(=O)N[C@@H](CCC(=O)O)C(=O)O)cc1 [MTX, methotrexate, reference compound] | – | – | – | 0.005 | 100 | 0.5

Source: US4740501A (priority 1985, dated 1988)
